Measurements taken from PubChem BioAssay (NCI).
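Cultured in 96-well plates, cells were exposed to test compound for 48 hours across five concentrations. The concentration for 50% growth inhibition is given as GI50. Definition used: TGI = concentration required for complete inhibition of growth.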

What was measured:
Assay in all cases: NCI tumour cell line growth inhibition, 48 h
CAKI-1 renal = tested on: CAKI-1 renal
SNB-75 CNS = tested on: SNB-75 CNS
786-0 renal = tested on: 786-0 renal
SK-OV-3 ovarian = tested on: SK-OV-3 ovarian
A498 renal = tested on: A498 renal
SNB-19 CNS = tested on: SNB-19 CNS
EKVX NSCLC = tested on: EKVX NSCLC
PC-3 prostate = tested on: PC-3 prostate
MCF7 breast = tested on: MCF7 breast
SR leukemia = tested on: SR leukemia
ACHN renal = tested on: ACHN renal
MDA-MB-231 breast = tested on: MDA-MB-231 breast
HOP-62 NSCLC = tested on: HOP-62 NSCLC
COLO 205 colon = tested on: COLO 205 colon
SW-620 colon = tested on: SW-620 colon
U251 CNS = tested on: U251 CNS
HCC-2998 colon = tested on: HCC-2998 colon
MDA-MB-435 = tested on: MDA-MB-435
HCT-116 colon = tested on: HCT-116 colon
SN12C renal = tested on: SN12C renal
SF-268 CNS = tested on: SF-268 CNS
HT29 colon = tested on: HT29 colon
SF-295 CNS = tested on: SF-295 CNS
RXF 393 renal = tested on: RXF 393 renal
OVCAR-4 ovarian = tested on: OVCAR-4 ovarian
HOP-92 NSCLC = tested on: HOP-92 NSCLC
A549 NSCLC = tested on: A549 NSCLC
NCI-H460 lung = tested on: NCI-H460 lung
HCT-15 colon = tested on: HCT-15 colon
SK-MEL-2 melanoma = tested on: SK-MEL-2 melanoma
NCI-H522 lung = tested on: NCI-H522 lung
MALME-3M melanoma = tested on: MALME-3M melanoma
UACC-257 melanoma = tested on: UACC-257 melanoma
LOX IMVI melanoma = tested on: LOX IMVI melanoma
MOLT-4 leukemia = tested on: MOLT-4 leukemia
TK-10 renal = tested on: TK-10 renal
T-47D breast = tested on: T-47D breast
SK-MEL-28 melanoma = tested on: SK-MEL-28 melanoma
SF-539 CNS = tested on: SF-539 CNS
CCRF-CEM leukemia = tested on: CCRF-CEM leukemia
NCI/ADR-RES ovarian = tested on: NCI/ADR-RES ovarian
BT-549 breast = tested on: BT-549 breast
K-562 leukemia = tested on: K-562 leukemia
UO-31 renal = tested on: UO-31 renal
KM12 colon = tested on: KM12 colon
M14 melanoma = tested on: M14 melanoma
RPMI-8226 leukemia = tested on: RPMI-8226 leukemia
NCI-H23 lung = tested on: NCI-H23 lung
HS 578T breast = tested on: HS 578T breast
IGROV1 ovarian = tested on: IGROV1 ovarian
SK-MEL-5 melanoma = tested on: SK-MEL-5 melanoma
UACC-62 melanoma = tested on: UACC-62 melanoma
OVCAR-5 ovarian = tested on: OVCAR-5 ovarian
OVCAR-8 ovarian = tested on: OVCAR-8 ovarian
DU-145 prostate = tested on: DU-145 prostate
OVCAR-3 ovarian = tested on: OVCAR-3 ovarian

CNC(=O)OC1C(O[C@H]2C[C@H]3[C@@H]4CC=C5C[C@@H](O)CC[C@]5(C)[C@H]4CC[C@]3(C)[C@H]2[C@H](C)C(=O)CCC(C)C)OCC(O)C1OC1OCC(O)C(O)C1OC(=O)c1ccc(OC)cc1 (some centres not stated)
GI50 (CAKI-1 renal): 0.0676 µM | TGI (CAKI-1 renal): 1.04 µM | GI50 (SNB-75 CNS): 0.00628 µM | TGI (SNB-75 CNS): 4.97 µM | GI50 (786-0 renal): 0.00341 µM | TGI (786-0 renal): 0.652 µM | GI50 (SK-OV-3 ovarian): 0.0177 µM | TGI (SK-OV-3 ovarian): 1.31 µM | GI50 (A498 renal): 0.00446 µM | TGI (A498 renal): 0.0205 µM | GI50 (SNB-19 CNS): 0.0204 µM | TGI (SNB-19 CNS): 3.89 µM | GI50 (EKVX NSCLC): 0.0396 µM | TGI (EKVX NSCLC): 3.47 µM | GI50 (PC-3 prostate): 0.01 µM | TGI (PC-3 prostate): 0.447 µM | GI50 (MCF7 breast): 0.0149 µM | TGI (MCF7 breast): 2.87 µM | GI50 (SR leukemia): 0.0112 µM | TGI (SR leukemia): 3.22 µM | GI50 (ACHN renal): 0.263 µM | TGI (ACHN renal): 5.13 µM | GI50 (MDA-MB-231 breast): 0.103 µM | TGI (MDA-MB-231 breast): 4.62 µM | GI50 (HOP-62 NSCLC): 0.0225 µM | TGI (HOP-62 NSCLC): 2.85 µM | GI50 (COLO 205 colon): 0.0579 µM | TGI (COLO 205 colon): 0.361 µM | GI50 (SW-620 colon): 0.0122 µM | TGI (SW-620 colon): 0.383 µM | GI50 (U251 CNS): 0.00334 µM | TGI (U251 CNS): 3.87 µM | GI50 (HCC-2998 colon): 0.693 µM | TGI (HCC-2998 colon): 5.25 µM | GI50 (MDA-MB-435): 0.0203 µM | TGI (MDA-MB-435): 0.359 µM | GI50 (HCT-116 colon): 0.0129 µM | TGI (HCT-116 colon): 3.11 µM | GI50 (SN12C renal): 2.64 µM | TGI (SN12C renal): 6.83 µM | GI50 (SF-268 CNS): 0.0226 µM | TGI (SF-268 CNS): 2.78 µM | GI50 (HT29 colon): 0.0631 µM | TGI (HT29 colon): 4.92 µM | GI50 (SF-295 CNS): < 0.00275 µM | TGI (SF-295 CNS): 0.00628 µM | GI50 (RXF 393 renal): < 0.00275 µM | TGI (RXF 393 renal): 0.0111 µM | GI50 (OVCAR-4 ovarian): 0.291 µM | TGI (OVCAR-4 ovarian): 7.36 µM | GI50 (HOP-92 NSCLC): 0.0209 µM | TGI (HOP-92 NSCLC): 3.1 µM | GI50 (A549 NSCLC): 0.0178 µM | TGI (A549 NSCLC): 4.96 µM | GI50 (NCI-H460 lung): 0.0115 µM | TGI (NCI-H460 lung): 0.491 µM | GI50 (HCT-15 colon): 0.677 µM | TGI (HCT-15 colon): 4.01 µM | GI50 (SK-MEL-2 melanoma): 0.00933 µM | TGI (SK-MEL-2 melanoma): 0.324 µM | GI50 (NCI-H522 lung): 0.0314 µM | TGI (NCI-H522 lung): 0.271 µM | GI50 (MALME-3M melanoma): 0.0517 µM | TGI (MALME-3M melanoma): 2.33 µM | GI50 (UACC-257 melanoma): 0.0237 µM | TGI (UACC-257 melanoma): 0.105 µM | GI50 (LOX IMVI melanoma): 0.0106 µM | TGI (LOX IMVI melanoma): 0.0688 µM | GI50 (MOLT-4 leukemia): 0.00824 µM | TGI (MOLT-4 leukemia): 0.0242 µM | GI50 (TK-10 renal): 0.793 µM | TGI (TK-10 renal): 7.69 µM | GI50 (T-47D breast): 0.035 µM | TGI (T-47D breast): 3.69 µM | GI50 (SK-MEL-28 melanoma): 0.0123 µM | TGI (SK-MEL-28 melanoma): 0.0754 µM | GI50 (SF-539 CNS): < 0.00275 µM | TGI (SF-539 CNS): 0.0185 µM | GI50 (CCRF-CEM leukemia): 0.00566 µM | TGI (CCRF-CEM leukemia): 0.0373 µM | GI50 (NCI/ADR-RES ovarian): 7.1 µM | TGI (NCI/ADR-RES ovarian): 27.5 µM | GI50 (BT-549 breast): < 0.00275 µM | TGI (BT-549 breast): 3.49 µM | GI50 (K-562 leukemia): 0.0139 µM | TGI (K-562 leukemia): 0.554 µM | GI50 (UO-31 renal): 0.0766 µM | TGI (UO-31 renal): 0.241 µM | GI50 (KM12 colon): 0.106 µM | TGI (KM12 colon): 4.97 µM | GI50 (M14 melanoma): 0.0137 µM | TGI (M14 melanoma): 0.0757 µM | GI50 (RPMI-8226 leukemia): < 0.00275 µM | TGI (RPMI-8226 leukemia): 0.0112 µM | GI50 (NCI-H23 lung): 0.134 µM | TGI (NCI-H23 lung): 4.59 µM | GI50 (HS 578T breast): < 0.00275 µM | TGI (HS 578T breast): 0.0584 µM | GI50 (IGROV1 ovarian): 0.0224 µM | TGI (IGROV1 ovarian): 3.95 µM | GI50 (SK-MEL-5 melanoma): 0.026 µM | TGI (SK-MEL-5 melanoma): 0.317 µM | GI50 (UACC-62 melanoma): 0.00688 µM | TGI (UACC-62 melanoma): 0.0188 µM | GI50 (OVCAR-5 ovarian): 0.235 µM | TGI (OVCAR-5 ovarian): 5.01 µM | GI50 (OVCAR-8 ovarian): 2.82 µM | TGI (OVCAR-8 ovarian): 11.2 µM | GI50 (DU-145 prostate): 0.0246 µM | TGI (DU-145 prostate): 6.12 µM | GI50 (OVCAR-3 ovarian): 1.03 µM | TGI (OVCAR-3 ovarian): 6.1 µM
